Drawing on paper PMC7084495, “Discovery of 1-Pyrimidinyl-2-Aryl-4,6-Dihydropyrrolo [3,4-d]Imidazole-5(1H)-Carboxamide as a Novel JNK Inhibitor” (International Journal of Molecular Sciences, 2020), this text covers IC50 for three molecules.

The pIC50 is the negative decadic logarithm of the IC50, by convention in mol/L. Low readings indicate a high IC50, high ones a low IC50.

Molecules are shown by their SMILES. pIC50: −log10 of the molar value.

This assay deals with T1, JNK3 (h) (Homo sapiens, UniProt P53779).
T1 construct: purchased Reaction Biology Corp. (Kinase HotSpot service)
T1 sequence (P53779 whole entry): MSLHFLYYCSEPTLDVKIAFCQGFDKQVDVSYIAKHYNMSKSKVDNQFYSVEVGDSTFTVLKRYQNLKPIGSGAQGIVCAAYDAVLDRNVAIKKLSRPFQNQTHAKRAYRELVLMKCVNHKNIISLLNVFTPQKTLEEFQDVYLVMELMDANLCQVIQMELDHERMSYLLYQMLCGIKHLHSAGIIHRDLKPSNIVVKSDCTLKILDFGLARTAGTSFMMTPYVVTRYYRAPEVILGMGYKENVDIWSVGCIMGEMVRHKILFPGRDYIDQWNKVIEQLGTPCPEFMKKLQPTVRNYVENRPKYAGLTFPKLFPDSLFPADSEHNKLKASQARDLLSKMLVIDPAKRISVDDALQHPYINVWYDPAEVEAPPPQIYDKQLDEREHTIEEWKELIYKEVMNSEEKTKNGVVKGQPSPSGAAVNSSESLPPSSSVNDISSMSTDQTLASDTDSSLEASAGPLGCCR
Briefly: JNK3 kinase inhibition, Reaction Biology Kinase HotSpot radiometric assay. The note with it: enzymatic activity; ATP 10 μM. The assay is classed as biochemical. An excerpt: (specific activity approx. 500 cpm/pmol, concentration as required).
Molecule `NC(=O)N1Cc2nc(-c3ccc(Cl)c(Cl)c3)n(-c3ccnc(N[C@H]4CCCN(C(=O)C5CC5)C4)n3)c2C1` [Compound 17a, (S)-1-(2-((1-(Cyclopropanecarbonyl)Piperidin-3-yl)Amino)Pyrimidin-4-yl)-2-(3,4-Dichlorophenyl)-4,6-Dihydropyrrolo[3,4-d]Imidazole-5(1H)-Carboxamide] gave a pIC50 of 7.98.
`NC(=O)N1Cc2nc(-c3ccc4c(c3)OCO4)n(-c3ccnc(N[C@H]4CCCN(C(=O)C5CCC5)C4)n3)c2C1` [Compound 20c, (S)-2-(Benzo[d][1,3]Dioxol-5-yl)-1-(2-((1-(Cyclobutanecarbonyl)Piperidin-3-yl)Amino)Pyrimidin-4-yl)-4,6-Dihydropyrrolo[3,4-d]Imidazole-5(1H)-Carboxamide] showed a pIC50 of 6.65.
`O=C(C1CC1)N1CCC[C@H](Nc2nccc(-n3c(-c4ccc(Cl)c(Cl)c4)nc4c3CN(C(=O)N3CCC(O)CC3)C4)n2)C1` [Compound 22a, (S)-(1-(2-((1-(Cyclopropanecarbonyl)piperidin-3-yl)amino)pyrimidin-4-yl)-2-(3,4-dichlorophenyl)-4,6-dihydropyrrolo[3,4-d]Imidazol-5(1H)-yl)(4-hydroxypiperidin-1-yl)methanone]: the pIC50 is 7.73.
